Data as given in patent publication US20260136597A1, “PHARMACEUTICAL COMPOSITION FOR PREVENTING OR TREATING A PERIODONTAL DISEASE OR DISLOCATED TRAUMATIC TOOTH” (HYSENSBIO Co., Ltd., priority 2020, published 2026).

How the values were obtained:
[1] = tested on: CAP; settings: hPDL cells; real-time PCR; average of three experiments
Procedure: Human periodontal ligament cells (hPDL cells) were isolated from periodontal ligament tissues from the wisdom teeth of 10 adults (18-22 years old) at Seoul National University Dental Hospital. Specifically, all experiments were performed with the consent of the patient after obtaining approval from the Hospital's Institutional Review Board, a periodontal ligament tissue attached to the root of a wisdom tooth was isolated and cut into double-sided pieces, placed in a 60 mm dish, and covered with a cover slip, and then cultured in Dulbecco's […] Eagle's Medium.
Total RNA from human periodontal ligament cells was isolated using a TRIzol reagent. cDNA was synthesized using 2 μg of total RNA, 1 μl of reverse transcriptase, and 0.5 μg of oligo (dT). cDNA of synthesized human periodontal ligament cells was used for a real-time polymerase chain reaction using primers shown in Table 2 below. A real-time polymerase chain reaction was performed in ABI PRISM 7500 sequence detection system (Applied Biosystems) using SYBR GREEN PCR Master Mix (Takara, Japan). The real-time polymerase chain reaction was performed at 94° C., 1 min; 95° C., 15 sec-60° C., 34 sec was performed under the condition of repeating 40 cycles. Results were analyzed using a comparative cycle threshold (CT) method.
Bone sialoprotein (BSP) and dentin matrix protein 1 (DMP1) genes are used as markers for the differentiation of osteoblast and cementoblast and are known as important genes for the calcification of a bone and cementum. In addition, a CAP (cementum attachment protein) gene is expressed in differentiated cementoblast and is known as a gene involved in the cementum attachment of a periodontal ligament fiber bundle.

[2] = tested on: BSP; assay: Real-time PCR, BSP gene expression in human periodontal ligament cells; type: cell-based; settings: hPDL cells, average of three experiments
Procedure: Human periodontal ligament cells (hPDL cells) were isolated from periodontal ligament tissues from the wisdom teeth of 10 adults (18-22 years old) at Seoul National University Dental Hospital. Specifically, all experiments were performed with the consent of the patient after obtaining approval from the Hospital's Institutional Review Board, a periodontal ligament tissue attached to the root of a wisdom tooth was isolated and cut into double-sided pieces, placed in a 60 mm dish, and covered with a cover slip, and then cultured in Dulbecco's degenerated Eagle's Medium.

[3] = tested on: PERIOSTIN; assay: Real-time PCR, periostin gene expression in human periodontal ligament cells; type: cell-based; settings: hPDL cells, average of three experiments
Excerpt: Periostin is a protein first discovered in a periodontal ligament and periosteum of a bone, and periostin is expressed in the periodontal ligament and mesenchymal of the developing tooth and is known to be involved in cell adhesion. According to several recent studies, periostin is an important regulator of periodontium formation, promotes collagen fiber production and migration of fibroblast and osteoblast, and it is known to play a pivotal role in the regeneration of periodontal ligament and alveolar bone after periodontal surgery to treat periodontal disease. Therefore, the effect of a peptide of Example 1 on the expression of periostin which is a marker gene for a periodontal ligament differentiation, and the type 3 collagen fiber gene (COL3) was confirmed.

[4] = tested on: three-wall periodontal defect; assay: Periodontium regeneration in periodontium damage animal model, histological evaluation; type: in vivo, beagle dogs; settings: beagle dog, 3 months
Procedure: Four beagle dogs (12-16 kg; […]) were anesthetized by inhalation of Geloran, intravenously injected with Zoletil (5 mg/kg) and Xylazine (0.2-0.5 mg/kg), and then treated with Lidocaine (Lidocaine 2% with 1:80,000 epinephrine). The 4th premolar tooth and the 2nd molar tooth were extracted from the mandible of the beagle dog, and then the dog waited for healing for 3 months. After 3 months of healing, three-wall periodontal defect was induced on distal and mesial surfaces of a 1st molar tooth. Then, a periodontal damage of 4×4×4 mm was formed with the buccal and distal bones remaining around the tooth root, the root alveolar bone is securely removed, tooth root planing was performed using a curette, and then an incisor groove was formed using a ½ round bur. Next, an experimental group was transplanted with a collagen sponge (a peptide solution obtained by dissolving a peptide in physiological saline at a concentration of 1 μg/μl was prepared, 50 μl of a peptide solution was added to the EP tube, and then was soaked for 5 minutes to prepare the collagen sponge) including a 50 μl of peptide (SEQ ID NO: 16 of group 2) prepared in Example 1 at a defect region, After the defect, only a negative control (NC) without any treatment and a collagen sponge (prepared by soaking a collagen sponge in 50 μl of physiological saline for 5 minutes) was placed on the inner bone wall of a bone defect and a transplanted negative control (NC+Plug) was sacrificed 3 months later, and histological evaluation was performed. After 3 months, a beagle dog was sacrificed by administering an excessive amount (90-120 mg/kg) of pentobarbital. A tooth of the beagle dog was extracted, fixed with 10% formalin, and then calcium was removed by adding 5% formic acid, molded, and embedded in paraffin, to obtain a tissue section with a thickness of 5 μm. The obtained tissue section was stained with hematoxylin and eosin or collagen stained (Masson's Trichrome Staining) to confirm periodontal ligament regeneration and then analyzed using by an optical microscope equipped with a digital camera (LEICA ICC50 camera, Germany). After extraction of a 4th premolar tooth and a 2nd molar tooth from the mandibles of 4 beagle dogs, they waited for 3 months to heal, and After 3 months of healing, the 3-mural periodontal defect was induced in distal and mesial surfaces of a 1st molar tooth. Then, periodontium damage of 4×4×4 mm was formed with the buccal and distal bones remaining around the tooth root, the root alveolar bone is securely removed, tooth root planing was performed using a curette, and then an incisor groove was formed. Next, the experimental group transplanted a collagen sponge containing 50 μg of the peptide (SEQ ID NO: 16) of Example 1 to the defect region, and after the defect, a negative control (NC) without any treatment and control (NC+Plug) transplanted by placing only a collagen sponge on the inner bone wall of the bone defect was sacrificed 3 months later for histological evaluation.

[5] = collagen sponge with 50 μg peptide, Masson's trichrome stain, FIG. 6
[6] = collagen sponge with 50 μg peptide, hematoxylin/eosin, FIG. 5

| Sequence | CAP gene expression, relative mRNA expression level compared to the control (Average) [1] | BSP gene expression, relative mRNA expression level compared to the control (Average) [2] | PERIOSTIN gene expression, relative mRNA expression level compared to the control (Average) [3] | other results |
| --- | --- | --- | --- | --- |
| KYKQKKKNYK [SEQ ID NO 5] | 2.67 | 2.67 | 2.67 | – |
| KYKQKKKSYK [SEQ ID NO 13] | 2.525 | 2.525 | 2.525 | – |
| KYKQKKRNYK [SEQ ID NO 7, Group 1 peptide, 8th amino acid asparagine (N)] | 2.451 | 2.215 | 2.329 | – |
| KYKQKKRSYK [SEQ ID NO 15] | 2.620 | 2.620 | 2.620 | – |
| KYKQKRKNYK [SEQ ID NO 6] | 2.705 | 2.705 | 2.705 | – |
| KYKQKRKSYK [SEQ ID NO 14] | 2.836 | 2.836 | 2.836 | – |
| KYKQKRRNYK [SEQ ID NO 8] | 2.021 | 2.021 | 2.021 | – |
| KYKQKRRSYK [SEQ ID NO 16, Group 2 peptide, 8th amino acid serine (S)] | 2.467 | 2.606 | 2.403 | Alveolar bone regeneration ([4]; collagen sponge with 50 μg peptide at defect, hematoxylin/eosin, FIG. 4): alveolar bone was regenerated in most of the damage periodontium; Incorporation of new periodontal ligament fiber bundle into alveolar bone and cementum [4, 5]: A new periodontal ligament fiber bundle was vertically incorporated in the newly formed alveolar bone and cementum; New cementum-like tissue formation [4, 5]: new cementum-like tissue was observed along a tooth root surface; New periodontal ligament-like tissue formation [4, 5]: new periodontal ligament-like tissue formation was also observed; Incorporation of new periodontal ligament into alveolar bone and cementum [4, 6]: New periodontal ligament was incorporated in the newly formed alveolar bone and cementum; New cementum-like tissue formation [4, 6]: new cementum-like tissue was observed along a tooth root surface; New periodontal ligament-like tissue formation [4, 6]: new periodontal ligament-like tissue formation was also observed |
| KYKQRKKNYK [SEQ ID NO 1] | 2.092 | 2.092 | 2.092 | – |
| KYKQRKKSYK [SEQ ID NO 9] | 2.211 | 2.211 | 2.211 | – |
| KYKQRKRNYK [SEQ ID NO 2] | 2.361 | 2.361 | 2.361 | – |
| KYKQRKRSYK [SEQ ID NO 10] | 2.811 | 2.811 | 2.811 | – |
| KYKQRRKNYK [SEQ ID NO 3] | 2.572 | 2.572 | 2.572 | – |
| KYKQRRKSYK [SEQ ID NO 11] | 2.362 | 2.362 | 2.362 | – |
| KYKQRRRNYK [SEQ ID NO 4] | 2.702 | 2.702 | 2.702 | – |
| KYKQRRRSYK [SEQ ID NO 12] | 2.211 | 2.211 | 2.211 | – |
